Test results taken from patent US20160136229A1, “MATERIALS FOR POSITIVE CATHEPSIN B MODULATION AND METHODS OF USE FOR TREATING MILD COGNITIVE IMPAIRMENT (MCI), EARLY DEMENTIA, A-SYNUCLEINOPATHY, TRAUMATIC BRAIN INJURY, CARDIOMYOPATHY, EYE DISEASE AND SKIN DAMAGE” (University of North Carolina at Pembroke, priority 2013, published 2016).

Tests used:
cathepsin B = cathepsin B (Mus musculus, UniProt P10605); assay: Cathepsin B / LAMP1 immunostaining of hippocampal tissue from PADK-treated mice; type: in vivo; design: from tissue; host or cells: mouse hippocampus (A1); settings: i.p., 20 mg/kg/day×9 days
cathepsin B, sequence (P10605 80-333): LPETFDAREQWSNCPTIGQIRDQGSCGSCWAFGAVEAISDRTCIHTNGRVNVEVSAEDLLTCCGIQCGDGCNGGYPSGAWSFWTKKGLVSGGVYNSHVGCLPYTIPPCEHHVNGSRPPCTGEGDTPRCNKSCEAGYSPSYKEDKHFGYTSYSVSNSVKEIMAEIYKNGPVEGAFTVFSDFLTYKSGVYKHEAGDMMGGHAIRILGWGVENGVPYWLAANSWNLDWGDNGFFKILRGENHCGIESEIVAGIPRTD
From the text: FIG. 1. Lysosomal modulation increases the cathepsin B content of lysosomes and reduces intracellular Δβ1-42 in the APPswe/PS1ΔE9 transgenic mouse model of Alzheimer's disease. […] Without wishing to be bound by any scientific theory, the latter steps may involve processing/trafficking of active intermediate (intCB) and mature forms (matCB) from early/late endosomes to lysosomes in order to promote protein degradation (A). […] The increase in organellar cathepsin B enzyme (red) in PADK-treated APPswe/PS1ΔE9 transgenic mice (tg) was associated with a decrease in intracellular Δβ1-42 in the CA1 pyramidal neurons (C). Arrows denote co-localization in lysosomes, capturing intact Δβ1-42 before being degraded by cathepsin B. View-field widths: 12 μm. wt, vehicle-treated wild-type mice.
The lysosomal modulator Z-Phe-Ala-diazomethylketone (PADK) is administered to APPswe/PS1ΔE9 transgenic mice. Low-level PADK enhances cathepsin trafficking and maturation, thereby improving the clearance capacity of lysosomes (FIG. 1). It attenuates both PHF-tau and synaptic decline in the hippocampal slice model of protein accumulation (Bendiske and Bahr, 2003; Butler et al., 2005; Bahr, 2009). […] In PADK-treated transgenic mice, the increase in organellar cathepsin B was associated with a decrease in intracellular Aβ1-42 in pyramidal neurons (FIG. 1C).

active cathepsin B = target: T1, active cathepsin B (Homo sapiens, UniProt P07858); assay: Active cathepsin B staining in human neuronal cultures; type: cell-based; settings: 10 μM for 3 days, vs control compound Z-FA
T1 construct: endogenous in cells

[1] = test system: human A53T α-synuclein transgenic mice; assay: Open field test in A53T α-synuclein transgenic mice; type: in vivo, mouse; settings: A53T mice 7-8 months; 18 mg/kg/day for 11 days
Method: FIG. 5. The cathepsin B modulator PADK also has a behavioral effect during early α-synucleinopathy. Vehicle-treated and PADK in the model of early α-synucleinopathy, human A53T α-synuclein transgenic mice, 7-8 months old, were injected with vehicle or PADK (18 mg/kg/day) for 11 days and their locomotor activity was measured in the open field test (OFT) for two days, center and perimeter crossings were measured. No difference in center crossings was found on day 1 as compared to wild-type mice (left graph), thus an indication of pre-symptomatic early stage Parkinson's disease (PD) before typical locomotor deficits. However, center crossings are often used as a measure of altered anxiety in PD mice. […] The altered anxiety in the vehicle-treated A53T mice appears to be a selective effect since perimeter crossings on day 2 were unchanged (right graph).

[2] = test system: phosphorylated tau (pTau); assay: pTau in Aβ42-treated rat hippocampal slice cultures (early tauopathy model); type: cell-based; settings: 5 μM for 4 days
Method: FIG. 4. Enhancing lysosome efficiency with the cathepsin B modulator PADK leads to reductions of multiple types of proteinopathy-related accumulation events. […] Age-matched wild-type mice (wt) and 9-10-month mutant human APP mice, a model of early dementia, treated with or without PADK were assessed for the 4-kDa Δβ peptide, the active form of cathepsin B (act CB), and other proteins in hippocampal samples (C). Similar treatment groups used another APP mouse model at 20-22 months of age to measure clearance of APP carboxyterminal fragments APP-αCTF and APP-βCTF (D). Rat hippocampal slice cultures from the untreated control group (con) and slices treated with submicromolar Δβ42 (early tauopathy model) in the absence or presence of PADK (5 μM for 4 days) were assessed for phosphorylated tau (pTau) and other proteins (E). For a model of early α-synucleinopathy, human A53T α-synuclein transgenic mice, at 7 months old, were studied with or without PADK treatment and assessed for human α-synuclein (α-syn) in TX-100 extracts of hippocampus and for other proteins in hippocampal homogenates (F). Plotted data (±SEM) were compared to neighboring vehicle groups by unpaired t-tests: *p=0.02, **p<0.01, ***p<0.001. APPswind and APP-PS1 mice are described in Butler et al., (2011), the entire content of which is hereby incorporated herein by reference. […]

Aβ1-42 peptide = settings: cited from earlier work
bacterial = assay: Bacterial cytotoxicity test; type: cell-based; settings: tested at up to a 1000 times the IC50 of the toxin mitomycin C
[3] = target: T2, active form of cathepsin B (Mus musculus, UniProt P10605); assay: Active cathepsin B immunoblot in CNS regions of A53T α-synuclein transgenic mice; type: in vivo; settings: i.p., 18 mg/kg/day
T2 construct: from tissue; host or cells: brain and CNS regions of mice (PADK-treated mice, A53T transgenic and wild-type mice, C57BL/6 mice)
T2 sequence (P10605 80-333 limits assumed): as the sequence (P10605 80-333) above
Method: FIG. 4. Enhancing lysosome efficiency with the cathepsin B modulator PADK leads to reductions of multiple types of proteinopathy-related accumulation events. […] Age-matched wild-type mice (wt) and 9-10-month mutant human APP mice, a model of early dementia, treated with or without PADK were assessed for the 4-kDa Δβ peptide, the active form of cathepsin B (act CB), and other proteins in hippocampal samples (C). Similar treatment groups used another APP mouse model at 20-22 months of age to measure clearance of APP carboxyterminal fragments APP-αCTF and APP-βCTF (D). Rat hippocampal slice cultures from the untreated control group (con) and slices treated with submicromolar Δβ42 (early tauopathy model) in the absence or presence of PADK (5 μM for 4 days) were assessed for phosphorylated tau (pTau) and other proteins (E). For a model of early α-synucleinopathy, human A53T α-synuclein transgenic mice, at 7 months old, were studied with or without PADK treatment and assessed for human α-synuclein (α-syn) in TX-100 extracts of hippocampus and for other proteins in hippocampal homogenates (F). Plotted data (±SEM) were compared to neighboring vehicle groups by unpaired t-tests: *p=0.02, **p<0.01, ***p<0.001. APPswind and APP-PS1 mice are described in Butler et al., (2011), the entire content of which is hereby incorporated herein by reference.
FIG. 6. […]

C[C@H](NC(=O)[C@H](Cc1ccccc1)NC(=O)OCc1ccccc1)C(=O)C=[N+]=[N-] [PADK, N-carbobenzyloxy-L-phenylalanyl-L-alanyl-diazomethylketone]
levels of cathepsin B in hippocampal neurons, co-localized with LAMP1-positive lysosomes (cathepsin B): enhanced levels of cathepsin B
levels of active cathepsin B (active cathepsin B): increased levels of active cathepsin B
center crossings on day 2 (altered anxiety) [1]: did not consistently exhibit such a positive trend
pTau accumulation [2]: significant decrease
synaptic protection [2]: evidence of synaptic protection
extracellular Aβ deposits (Aβ1-42 peptide; AD mouse models): significantly reduced
truncated Aβ38 (Aβ1-42 peptide; AD transgenic mice): increase
synaptic integrity and cognitive ability (Aβ1-42 peptide; AD transgenic mouse models): improved
intracellular Aβ1-42 peptide in the hippocampus and other brain regions (Aβ1-42 peptide; two different transgenic mouse models of AD): reduced
active form of cathepsin B (Aβ1-42 peptide; two mouse models of AD): markedly up-regulated
bacterial cytotoxicity (bacterial): did not cause bacterial cytotoxicity
active CatB levels increase in brains ([3]; 7-8 months): 3-6 fold
active form of cathepsin B across CNS regions (immunoblot) ([3]; 7 months, p<0.02 vs vehicle-treated tg): robust PADK-mediated increase
